Data on one compound can be found in PMC3567212 (Biochemistry, 2012).

Changes are numbered by the printed parent chain.

In assay [1] the target is T1, Rhizobium etli pyruvate carboxylase (RePC) (Rhizobium etli, UniProt Q2K340).
T1 sequence (Q2K340 1-1154): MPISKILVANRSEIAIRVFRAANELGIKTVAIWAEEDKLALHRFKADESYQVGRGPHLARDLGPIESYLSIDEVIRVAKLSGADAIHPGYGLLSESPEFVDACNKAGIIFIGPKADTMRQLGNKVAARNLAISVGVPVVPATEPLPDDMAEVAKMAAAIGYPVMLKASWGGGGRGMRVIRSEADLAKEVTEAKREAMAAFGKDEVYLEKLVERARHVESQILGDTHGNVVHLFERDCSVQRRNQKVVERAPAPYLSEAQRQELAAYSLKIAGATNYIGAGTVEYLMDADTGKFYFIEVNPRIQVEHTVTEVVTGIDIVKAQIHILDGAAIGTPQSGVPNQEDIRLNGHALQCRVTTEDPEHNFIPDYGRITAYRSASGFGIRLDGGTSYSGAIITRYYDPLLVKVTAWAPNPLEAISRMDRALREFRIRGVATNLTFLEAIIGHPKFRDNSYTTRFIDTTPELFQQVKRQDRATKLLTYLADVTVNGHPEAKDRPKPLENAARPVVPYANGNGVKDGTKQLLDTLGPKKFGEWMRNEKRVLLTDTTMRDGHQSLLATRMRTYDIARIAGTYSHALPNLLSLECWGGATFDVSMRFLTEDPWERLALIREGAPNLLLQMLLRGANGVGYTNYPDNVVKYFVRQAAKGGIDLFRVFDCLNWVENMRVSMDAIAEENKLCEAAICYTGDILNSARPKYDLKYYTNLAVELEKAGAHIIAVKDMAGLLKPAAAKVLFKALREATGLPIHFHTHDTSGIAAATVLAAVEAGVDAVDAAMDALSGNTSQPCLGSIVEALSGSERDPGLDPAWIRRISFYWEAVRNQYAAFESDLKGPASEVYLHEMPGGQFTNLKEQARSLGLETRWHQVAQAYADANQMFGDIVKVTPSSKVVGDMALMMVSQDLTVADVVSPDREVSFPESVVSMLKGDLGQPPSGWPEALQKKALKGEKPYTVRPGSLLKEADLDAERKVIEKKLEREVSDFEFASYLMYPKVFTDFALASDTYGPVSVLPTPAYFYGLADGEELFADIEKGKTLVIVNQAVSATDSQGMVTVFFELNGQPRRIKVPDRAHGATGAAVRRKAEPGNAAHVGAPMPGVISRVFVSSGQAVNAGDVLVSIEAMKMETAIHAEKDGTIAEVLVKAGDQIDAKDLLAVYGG
Nature of the assay: coupled spectrophotometric assay. In kind it is biochemical.

The target in assay [2] is T2, Rhizobium etli pyruvate carboxylase (RePC) (Rhizobium etli, UniProt Q2K340, R427K).
T2 sequence (Q2K340 1-1154 R427K): T1 sequence (Q2K340 1-1154) with R427K
In words: coupled spectrophotometric assay. In kind it is biochemical.

Turning to `N[C@@H](CC(=O)O)C(=O)O` [L-aspartate], the Ki was determined as 5 ± 0.6 mM in assay [1] and 4.5 ± 0.6 mM in assay [2].
